Experimental data as given in US5936082A, “Metallocorrinoids as biologically compatible carriers of pharmacological agents” (The University of Akron, priority 1997, dated 1999).

Experiment: In vitro nitric oxide release and content by nitrogen oxides analyzer (Monitor Labs Model 8440)
Type: physicochemical
Description: The nitric oxide content and kinetic release profile, shown in FIG. 2, of nitrosylcobalamin was determined in vitro using a nitrogen oxides analyzer (Monitor Labs Model 8440). The amount of NO-"loading" was determined by examining the cumulative NO release, characterized at pH 4.9, 32° C., during a time span of 675.5 hours. The total NO released was 4,610 nmol NO, 38% loading based on the theoretical maximum of 11,890 nmol. The first twenty hours of NO release was characterized in great detail, with data readings taken every 15 minutes for the first eight hours and every half hour thereafter, resulting in the production of 260 nmol NO. […] At pH 10.0, NO release was undetected even though the sample size was increased to 20.6 mg.

nitrosylcobalamin
NO produced at pH 5.0 (5 mg sample, pH 5.0, 37° C., 86 hour time span): 95.0 nmol
NO produced at pH 6.0 (5 mg sample, pH 6.0, 37° C., 86 hour time span): 2.4 nmol
NO produced at pH 7.4 (5 mg sample, pH 7.4, 37° C., 86 hour time span): 1.05 nmol
kinetic order of the cumulative NO release profile (cumulative NO release, pH 4.9, 32° C., R^2 =0.9984): first order kinetics
calculated half life of NO release (first order fit of cumulative NO release, pH 4.9, 32° C.): 210 h
NO release in the first twenty hours (first twenty hours, pH 4.9, 32° C.): 260 nmol
NO loading, based on the theoretical maximum of 11,890 nmol (from cumulative NO release at pH 4.9, 32° C., 675.5 hours): 38%
total NO released (cumulative NO release) (pH 4.9, 32° C., time span of 675.5 hours): 4,610 nmol
NO release at pH 10.0 (pH 10.0, sample size 20.6 mg): undetected
